Experimental data reported in article PMC10778824, “New Chalcone Derivatives Containing 2,4-Dichlorobenzenesulfonamide Moiety with Anticancer and Antioxidant Properties” (International Journal of Molecular Sciences, 2023).
In brackets after ≈: the same amount, converted by molar mass.

Key:
K-562 cells = conditions: 10 µM; cited from earlier work
HCT-116 colon = system: HCT-116 colon; parameters: method as in PMID 29223717; conditions: cited from earlier work
143B osteosarcoma = system: 143B osteosarcoma; parameters: method as in PMID 29223717; conditions: cited from earlier work
MCF-7 breast = system: MCF-7 breast; parameters: method as in PMID 29223717; conditions: cited from earlier work
neutrophil elastase = biological target: T1, neutrophil elastase (Sus scrofa, UniProt P00772); test: Elastase assay (SANA substrate); format: biochemical, porcine; conditions: Tris-HCl pH 8.0, SANA substrate; read-out: neutrophil elastase inhibition IC50 (converted)
T1 construct: purchased Sigma Chemical Co. (St. Louis, MO, USA)
T1 sequence (P00772 27-266): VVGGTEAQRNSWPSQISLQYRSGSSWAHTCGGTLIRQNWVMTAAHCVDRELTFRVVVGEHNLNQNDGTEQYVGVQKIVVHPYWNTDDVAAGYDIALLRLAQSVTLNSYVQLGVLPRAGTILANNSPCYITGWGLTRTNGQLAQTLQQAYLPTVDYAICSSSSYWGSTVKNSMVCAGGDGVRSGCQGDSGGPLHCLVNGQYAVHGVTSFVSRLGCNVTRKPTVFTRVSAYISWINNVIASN
Description: The elastase analysis was performed according to the spectrophotometric method with oleanolic acid as a reference. The reaction mixture (Tris-HCl buffer (pH 8.0), 1.0 μg/mL porcine pancreatic elastase, and different concentrations of chalcone derivatives was preincubated at room temperature for 15 min. Afterwards, the addition of the substrate—SANA—started the reaction. Product formation changes were analyzed at λ = 410 nm for 20 min every 20 s (Epoch, BioTek Instruments, Santa Clara, CA, USA). The control was composed of Tris-HCl buffer (pH 8.0), an appropriate concentration of the chalcone derivative, and SANA.

[1] = system: human neonatal fibroblasts; test: MTT assay, noncancerous fibroblasts; format: cell-based; conditions: Homo sapiens, Fibroblast, 24 h treatment
Description: (§1) The human gastric adenocarcinoma AGS, cervical cancer HeLa, and acute promyelocytic leukemia HL-60 cells were obtained from the American Type Culture Collection (ATCC, Manassas, VA, USA). Human neonatal fibroblasts were obtained from LGC Standards (Luckenwalde, Germany). The HeLa and AGS lines were cultured in Dulbecco’s modified Eagle’s medium (DMEM) and DMEM/F12 medium, respectively. The HL-60 line was maintained in RPMI-1640 medium. Fibroblasts were cultured in Fibroblast Growth Medium with Supplement Mix. All the media were supplemented with 100 units/mL of penicillin, 100 µg/mL of streptomycin, and 10% (v/v) fetal bovine serum (FBS) (Merck Millipore, Burlington, MA, USA). The cells were incubated at 37 °C and 5% CO2.
(§2) To estimate the cytotoxic effect of the five compounds (4–8), MTT (3-(4,5-dimethylthiazol-2-yl)-2,5-diphenyltetrazolium bromide) assay was used. Oxaliplatin was used as a positive control in this test. All the cell lines were seeded in 96-well plates at a density of 5 × 10^3 cells/well and treated for 24 h with the compounds at concentrations of 0.5–40 µg/mL. Oxaliplatin was tested in the range of 20–400 µg/mL (50–1000 µM). After treatment, the cells were incubated with MTT (0.5 mg/mL; Merck Millipore, Burlington, MA, USA) for 3 h. Then, DMSO was used to dissolve formazan crystals, and the absorbance of the formazan solution was measured with a plate reader (Epoch, BioTek Instruments, Santa Clara, CA, USA). All the results (±standard deviation (SD)) were obtained from six repetitions in at least two independent experiments. The data are expressed as IC50 values (µg/mL).

[2] = system: gastric adenocarcinoma AGS; test: MTT assay, AGS cells; format: cell-based, human
Description: as §1, §2

[3] = β-Carotene bleaching test
Description: β-Carotene bleaching test was based on the method described by Olszowy et al. with some modifications. First, 1 mg of β-carotene was dissolved in 5 mL of chloroform. Afterwards, […] of linoleic acid and 200 mg of Tween 40 were added. The chloroform was evaporated, and 50 mL of oxygenized water was added. The created emulsion was mixed with different concentrations of chalcone derivatives. β-carotene bleaching was analyzed at λ = 492 nm before (t = 0 min) and after 90 min (t = 90 min) of incubation at 50 °C (Epoch, BioTek Instruments, Santa Clara, CA, USA). Ascorbic acid was used as a standard. The control was composed of emulsion and DMSO.
The results were calculated according to the following Formula (4):[(AsampleT0 − AsampleT90)/(AcontrolT0 − AcontrolT90) × 100%(4)

[4] = system: Salmonella enterica ATCC13076; test: MIC determination; format: cell-based; conditions: 37 °C, 48 h
Description: (§3) The MIC determinations for Staphylococcus epidermidis ATCC14990, Staphylococcus aureus ATCC6538, Enterococcus faecalis ATCC51299, Klebsiella pneumoniae ATCC13883, Escherichia coli ATCC8739, Salmonella enterica ATCC13076, Helicobacter pylori ATCC43504, Campylobacter jejuni ZMF, Campylobacter coli ZMF, Bacillus cereus PCM 1948,2019 (ATCC11778), and Listeria monocytogenes PCM2191 were performed based on the methodology described by Krauze-Baranowska et al.. The procedure for H. pylori was used in the experiments with Campylobacter strains, and the procedure for B. subtilis was used in the experiments with L. monocytogenes and B. cereus. The tested samples were dissolved in DMSO and diluted with water (concentration of approximately 500 μg/mL). The solutions were diluted geometrically by transferring the mixture/dilution (100 μL) from the first to the twelfth well of the microtiter plate. The final concentrations of samples used for antimicrobial effects ranged from 500 to 0.006 µg/mL. Ampicillin was used as a reference compound in the concentration range of 128 to 0.0625 µg/mL. The tests were incubated at 37 °C for 48 h. The diluent concentration had no effect on the activity of the tested compounds. All experiments were performed in triplicate.

[5] = system: Staphylococcus aureus ATCC6538; test: MIC determination; format: cell-based; conditions: 37 °C, 48 h
Description: as §3

[6] = system: Enterococcus faecalis ATCC51299; test: MIC determination; format: cell-based; conditions: 37 °C, 48 h
Description: as §3

[7] = system: Staphylococcus epidermidis ATCC14990; test: MIC determination; format: cell-based; conditions: 37 °C, 48 h
Description: as §3

Campylobacter coli ZMF = test: MIC determination; format: cell-based; conditions: 37 °C, 48 h
Description: as §3

[8] = system: Listeria monocytogenes PCM2191; test: MIC determination; format: cell-based; conditions: 37 °C, 48 h
Description: as §3

[9] = system: Escherichia coli ATCC8739; test: MIC determination; format: cell-based; conditions: 37 °C, 48 h
Description: as §3

[10] = system: Bacillus cereus PCM 1948,2019 (ATCC11778); test: MIC determination; format: cell-based; conditions: 37 °C, 48 h
Description: as §3

[11] = system: Helicobacter pylori ATCC43504; test: MIC determination; format: cell-based; conditions: 37 °C, 48 h
Description: as §3

[12] = system: Klebsiella pneumoniae ATCC13883; test: MIC determination; format: cell-based; conditions: 37 °C, 48 h
Description: as §3

Campylobacter jejuni ZMF = test: MIC determination; format: cell-based; conditions: 37 °C, 48 h
Description: as §3

[13] = system: acute promyelocytic leukemia HL-60; test: MTT assay, HL-60 cells; format: cell-based, human
Description: as §1, §2

cervical cancer HeLa = test: MTT assay, HeLa cells; format: cell-based, human
Description: as §1, §2

[14] = DPPH radical scavenging assay; conditions: for % of DPPH radical inhibition: concentration of 800 µg/mL
Description: The DPPH radical scavenging assay of samples (ligands or complexes) was performed with ascorbic acid as a standard. Different concentrations of chalcone derivatives, dissolved in DMSO, were mixed with the same amount of 0.06 mM DPPH methanolic solution and incubated at room temperature in the dark for 30 min. The absorbance was analyzed at λ = 517 nm using a 96-well microplate reader (Epoch, BioTek System, Winooski, VT, USA). The control was composed of DPPH and DMSO. DPPH inhibition was calculated according to the following Formula (2):DPPH Inhibition (%) = [(Acontrol − Asample)/Acontrol] × 100%(2)

[15] = system: cancer cells (HeLa, HL-60, AGS); test: MTT assay, cancer cells taken together; format: cell-based, human; conditions: HL-60 and AGS together
Description: as §1, §2

[16] = system: colon cancer cells (HTC-116); parameters: method as in PMID 12556221; conditions: preclinical tests; cited from earlier work
[17] = ABTS radical scavenging assay
Description: The ABTS radical scavenging assay of chalcone derivatives was performed with ascorbic acid as a standard. Different concentrations of samples, dissolved in DMSO, were mixed with 170 μL of ABTS solution (2 mM ABTS diammonium salt and 3.5 mM potassium persulfate), and water was added to a final volume of 300 μL. ABTS solution with DMSO was used as a control. […] ABTS inhibition was calculated according to the following Formula (3):ABTS Inhibition (%) = [(Acontrol − Asample)/Acontrol] × 100%(3)

[18] = system: hepatocellular carcinoma HepG2 cells; parameters: method as in PMID 32545423; conditions: cited from earlier work
[19] = biological target: BRAF serine–threonine kinase; parameters: method as in PMID 22646766; conditions: cited from earlier work
[20] = SI = IC50 noncancer cells/IC50 cancer cells, in relation to human neonatal fibroblasts

For `COc1ccc(C(=O)C=Cc2ccccc2)cc1S(N)(=O)=O` [5-cinnamoyl-2-methoxybenzenesulfonamide], the “viability of leukemia cells” value (K-562 cells) is given as “less than 10%”.

In the case of `Cc1cccc(S(=O)(=O)Nc2cccc(/C=C/C(=O)c3nc4ccccc4[nH]3)c2)c1` [(E)-N-{3-[3-(1H-benzo[d]imidazol-2-yl)-3-oxoprop-1-en-1-yl]phenyl}-3-methylbenzenesulfonamide], the IC50 (HCT-116 colon) is listed as 600 nM, the IC50 (143B osteosarcoma) is listed as 790 nM and the IC50 (MCF-7 breast) is listed as 890 nM.

Compound `Cc1ccc(/C=C/C(=O)c2ccc(NS(=O)(=O)c3cc(C)c(Cl)cc3Cl)cc2)cc1` [Compound 8, (E)-2,4-Dichloro-5-Methyl-N-{4-[3-(p-Tolyl)acryloyl]phenyl}benzenesulfonamide] has an IC50 (neutrophil elastase) of 55900 nM, an IC50 [1] of 27.8 ± 2.82 µg/mL (≈ 60.4 µM) and an IC50 ([2]; Homo sapiens, AGS, 24 h, MTT, 24 h treatment) of 3.6 ± 0.33 µg/mL (≈ 7.82 µM). For the same compound, the “selectivity index AGS” value [2, 20] was 7.72, the “protection of lipids oxidation / reduction of lipid peroxidation (in words)” value ([3]; compared to ascorbic acid) was “weaker properties” and the MIC [4] was over 500 µg/mL. For the same compound, the MIC [5] was over 500 µg/mL, the MIC [6] was over 500 µg/mL and the MIC [7] was over 500 µg/mL. For the same compound, the MIC (Campylobacter coli ZMF) was over 500 µg/mL, the MIC [8] was over 500 µg/mL and the MIC [9] was over 500 µg/mL. The MIC [10] was over 500 µg/mL, the MIC [11] was over 500 µg/mL and the MIC [12] was over 500 µg/mL. The MIC (Campylobacter jejuni ZMF) was over 500 µg/mL, the IC50 ([13]; Homo sapiens, HL-60, 24 h, MTT, 24 h treatment) was 2.9 ± 0.17 µg/mL (≈ 6.3 µM) and the “selectivity index HL-60” value [13, 20] was 9.58. For the same compound, the IC50 (cervical cancer HeLa; Homo sapiens, HeLa, MTT, 24 h treatment) was 7.96 ± 0.37 µg/mL (≈ 17.3 µM), the “selectivity index HeLa” value (cervical cancer HeLa; [20]) was 3.50 and the “% of DPPH radical inhibition” value [14] was 0.32 ± 0.03%. The “IC50 toward cancer cells” value [15] was “weaker activity”.

In the case of `NS(=O)(=O)c1ccc(S(=O)(=O)Nc2cccc3c(Cl)c[nH]c23)cc1` [Indisulam], the “IC50 colon cancer cells (HTC-116)” value [16] is listed as 0.11 µg/mL (≈ 0.285 µM).

In the case of `O=C1O[C@H]([C@@H](O)CO)C(O)=C1O` [ascorbic acid, reference compound], the “β-carotene bleaching IC50” value ([3]; 90 min at 50 °C) is reported as 15.6 ± 0.65 µg/mL, the “DPPH IC50” value [14] is reported as 12.75 ± 0.25 µg/mL and the “% of DPPH radical inhibition” value [14] is reported as 100%. For the same compound, the “ABTS IC50” value [17] was 20.43 ± 0.79 µg/mL and the “% of ABTS radical inhibition” value ([17]; concentration of 800 µg/mL) was 100%.

In the case of `COc1cc(O)cc(O)c1C(=O)/C=C/c1ccccc1` [cardamonin], the IC50 [18] is listed as 17100 ± 592 nM.

For `CCCS(=O)(=O)Nc1ccc(F)c(C(=O)c2c[nH]c3ncc(-c4ccc(Cl)cc4)cc23)c1F` [vemurafenib], the IC50 [19] is listed as 31 nM.

For methoxytolylacryloylbenzenesulfonamide, the “viability of leukemia cells” value (K-562 cells) is given as “less than 10%”.
